Results published in patent US10028992B2, “Methods of treating muscular dystrophy” (BOARD OF REGENTS OF THE NEVADA SYSTEM OF HIGHER EDUCATION …, priority 2012, dated 2018).
“And” between values parts separate entries of the source, which are not always exact repeats. Equal entries are not always repeated. Where two headings read alike, the source gives them in different places.

System: α7 integrin promoter
Assay: muscle cell-based assay: α7βgal+/− myoblasts/myotubes, LacZ reporter, β-galactosidase cleavage of FDG
Parameters: species or system mouse
Settings: for AC50: read-out: Fit Log AC50 (converted); for Emax: read-out: Max Response [%]; for Fit HillSlope: curve fit; for Fit Zero Activity [%]: fitted activity at zero concentration; for Fit Curve Class: key not given; for Score: Table 12 Compound data, concentration-response curve fit
Description: An α7 integrin null mouse was produced in which exon 1 of the gene encoding the α7 integrin was replaced by the LacZ reporter. In these mice, all the transcriptional regulatory elements of the α7 integrin promoter were retained, allowing β-galactosidase to report expression of 7 integrin. A primary myoblast cell line (designated α7βgal^+/−) isolated from 10 day old α7^+/− pups were analyzed for the ability of β-galactosidase to report α7 integrin expression. α7βgal^+/− myoblasts were differentiated and subjected to X-gal staining and western analysis (FIGS. 1A and 1B).
The activity of the α7 integrin promoter was measured by β-galactosidase cleavage of the non-fluorescent compound fluorescein di-β-D-galactopyranoside (FDG) to fluorescein. This assay was used to screen compound libraries to identify molecules that up-regulate α7 integrin expression in muscle.
Also evaluated was the effect of various isoforms of laminin and the ligand for α7β1 integrin on integrin expression. Positive hits were subjected to dose-response analysis, western analysis and a myostatin counterscreen (a negative regulator of muscle growth).

[1] = Mus musculus, Table 12, log of AC50, given with negative sign, unit of AC50 not given

Row | SMILES | AC50 [1] [nM] | Emax (Mus musculus) [%] | Fit HillSlope (Table 12) | Fit Zero Activity [%] (Table 12) | Fit Curve Class (Table 12) | Score | also measured
1 | O=C(COc1ccc(Cl)cc1)N1CCN(C2CCCC2)CC1.O=C(O)C(=O)O |  |  |  |  |  |  | Results in a α7+/− β-galactosidase assay, Myotubes, 0.5 uM: 0.1096; Results in a α7+/− β-galactosidase assay, Myotubes, 1 uM: 0.06035; Results in a α7+/− β-galactosidase assay, Myotubes, 5 uM: −0.07324; Results in a α7+/− β-galactosidase assay, Myotubes, 10 uM: −0.04013; Results in a α7+/− β-galactosidase assay, Myotubes, 20 uM: −0.1813; Results in a α7+/− β-galactosidase assay, Myotubes, 40 uM: −0.2711
2 | O=C(Nc1ccccc1Cl)C1CCCN1C(=O)OCc1ccccc1 (stereo not shown) |  |  |  |  |  |  | Results in a α7+/− β-galactosidase assay, Myotubes, 0.5 uM: −0.04746; Results in a α7+/− β-galactosidase assay, Myotubes, 1 uM: −0.07012; Results in a α7+/− β-galactosidase assay, Myotubes, 5 uM: −0.00214; Results in a α7+/− β-galactosidase assay, Myotubes, 10 uM: −0.05774; Results in a α7+/− β-galactosidase assay, Myotubes, 20 uM: −0.1932; Results in a α7+/− β-galactosidase assay, Myotubes, 40 uM: −0.2694
3 | C#CC1(O)CCC2C3CCC4=C/C(=N/OCC(=O)NCC(=O)NC(C(=O)O)C(C)C)CC[C@]4(C)C3CC[C@@]21C (stereo partly shown) |  |  |  |  |  |  | Results in a α7+/− β-galactosidase assay, Myotubes, 0.5 uM: 0.1086; Results in a α7+/− β-galactosidase assay, Myotubes, 1 uM: 0.2546; Results in a α7+/− β-galactosidase assay, Myotubes, 5 uM: 0.3822; Results in a α7+/− β-galactosidase assay, Myotubes, 10 uM: 0.2484; Results in a α7+/− β-galactosidase assay, Myotubes, 20 uM: 0.1342; Results in a α7+/− β-galactosidase assay, Myotubes, 40 uM: 0.073
4 | O=C1Nc2ccccc2/C1=C/c1c[nH]cn1 |  |  |  |  |  |  | Results in a α7+/− β-galactosidase assay, Myotubes, 0.5 uM: −0.09659; Results in a α7+/− β-galactosidase assay, Myotubes, 1 uM: 0.04801; Results in a α7+/− β-galactosidase assay, Myotubes, 5 uM: 0.2975; Results in a α7+/− β-galactosidase assay, Myotubes, 10 uM: 0.1108; Results in a α7+/− β-galactosidase assay, Myotubes, 20 uM: 0.1916; Results in a α7+/− β-galactosidase assay, Myotubes, 40 uM: 0.1189
5 | Cc1ccc(NS(=O)(=O)c2cccc(C(=O)O)c2)cc1S(=O)(=O)N1CCOCC1 |  |  |  |  |  |  | Results in a α7+/− β-galactosidase assay, Myotubes, 5 uM (Myotubes, compound at 5 uM): 0.6308 and 0.5052
6 | COc1cc([N+](=O)[O-])cc(/C=N/NC(=O)C(O)(c2ccccc2)c2ccccc2)c1O |  |  |  |  |  |  | Results in a α7+/− β-galactosidase assay, Myotubes, 0.5 uM: 0.1119; Results in a α7+/− β-galactosidase assay, Myotubes, 1 uM: −0.01127; Results in a α7+/− β-galactosidase assay, Myotubes, 5 uM: −0.4224; Results in a α7+/− β-galactosidase assay, Myotubes, 10 uM: −0.4434; Results in a α7+/− β-galactosidase assay, Myotubes, 20 uM: −0.2622; Results in a α7+/− β-galactosidase assay, Myotubes, 40 uM: −0.3132
7 | Cc1cc(C2CCCCC2)n(O)c(=O)c1 [Ciclopirox ethanolamine, ciclopirox ethanolamine, reference compound] |  |  |  |  |  |  | EC50 (Mus musculus, enhancement of α7 integrin expression in muscle cells, read-out: EC50): 0.6 µg/mL; Optimal Concentration (enhancement of α7 integrin expression in muscle cells): 4 µg/mL
8 | CC(OC(=O)c1cc(-c2cccnc2)nc2ccccc12)C(=O)Nc1ccc2ccccc2c1 (stereo not shown) [Compound 1] | 1120 | 191 | 3.132 | −2.9752 | 1.1 | 94 | Activity at 0.307 μM [%] **: 0%
9 | Cc1cccc(OCc2nc(C#N)c(N3CCCC3)o2)c1 [Compound 2] | 3550 | 223 | 1.4163 | 3.1995 | 1.1 | 91 | Activity at 7.660 μM [%] **: 175.022%
10 | COc1ccccc1-c1coc2c3c(ccc2c1=O)OC1CCCCN1C3 (stereo not shown) [Compound 3] | 2240 | 159 | 3.0654 | −35.3084 | 1.1 | 89 | 
11 | Cc1ccccc1C(=O)Nc1scc(-c2ccc(Br)cc2)c1C(=O)O [Compound 4] | 2820 | 137 | 1.8617 | 7.6069 | 1.1 | 87 | 
12 | COc1cc2c(cc1NC(=O)Cc1ccc(C)cc1)oc1ccccc12 [Compound 5] | 1120 | 87.1 | 2.5334 | −5.0637 | 1.1 | 86 | Activity at 38.30 μM [%] **: 87.1241%
13 | COCc1c(C(=O)OCc2nc(=O)c3sccc3[nH]2)oc2ccccc12 [Compound 6] | 1120 | 68.1 | 1.3437 | −58.5311 | 1.1 | 85 | 
14 | O=C(NC1CCCC1)c1ccc(CS(=O)(=O)Cc2ccccc2F)o1 [Compound 7] | 4470 | 105 | 1.6924 | 12.5 | 1.1 | 85 | 
15 | CN(C)S(=O)(=O)c1cccc(C(=O)Nc2ccc3c(c2)CCC3)c1 [Compound 8] | 2820 | 94.3 | 4.9549 | −15.6523 | 1.1 | 85 | 
16 | Cc1c(C(=O)O)cccc1-n1c(C)cc(/C=N/Nc2ccc([N+](=O)[O-])cn2)c1C [Compound 9] |  |  | 1.3723 | −30.5005 | 1.1 | 85 | Max Response [%]: 88.6572%; Activity at 0.307 μM [%] **: −24.4743%; Activity at 1.530 μM [%] ** (1.530 μM): 6.2893%; Activity at 7.660 μM [%] **: 68.0567%; Activity at 38.30 μM [%] **: 88.6572%; Fit Infinite Activity [%] (Table 12, fitted activity at infinite concentration): 92.2022%; Fit Log AC50 (Table 12, log of AC50, given with negative sign, unit of AC50 not given): −5.55
17 | Cc1ccc(NP(=O)(Nc2ccc(C)cc2)Nc2ccc(C)cc2)cc1 [Compound 10] | 3160 | 102 | 2.8473 | 0 | 1.1 | 85 | Activity at 0.307 μM [%] **: 0%
18 | Cc1cc(OCC(=O)NC(C)C)ccc1Cl [Compound 11] | 3980 | 102 | 2.5334 | −0.509 | 1.1 | 85 | Activity at 0.307 μM [%] **: 0%
19 | COC(=O)C1=C(C)N=C(C)/C(=C(/O)OC)C1c1ccccc1OCc1c(C)no[n+]1[O-] (stereo not shown) [Compound 12] | 2820 | 100 | 1.4781 | 9.3996 | 1.1 | 85 | 
